“And” between values parts separate entries of the source, which are not always exact repeats. Identical values can stand only once. The source made the active and inactive calls.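 The calls were made as follows: active = compounds giving half or more protection of infected cells from virus-caused growth loss, again on retest; inactive = the rest.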
Tested on: CEM cells HIV-1 protection, formazan growth assay
Assay: NCI AIDS Antiviral Assay
Conditions: for IC50: measured here: growth of uninfected CEM cells
In short: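 Screen of anti-HIV-1 activity in human CEM cells using a formazan-based growth measurement at five drug concentrations. Hits with 50% or greater protection were repeated, and confirmation required reproducible complete protection.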

SMILES | EC50 | IC50 | outcome
COc1ccc(-n2c(=O)n(C)c(=O)n2-c2c(C)c(C)c(C)c(C)c2C)cc1 | > 100 µM | 18.6 µM | 
CN(C)CCN1C(=O)N(CCN(C)C)c2c3cc(O)ccc3nc3c([N+](=O)[O-])ccc1c23 | > 200 µM | 2.34 µM | 
COc1ccc(-c2c3c(nc4nc(SCCc5ccccc5)nc(N)c24)CCCC3)cc1OC | > 200 µM | > 200 µM | 
C1=CC=C(N=P(c2ccccc2)(c2ccccc2)c2ccccc2)CC=C1 |  |  | inactive
Oc1ccccc1C=Nc1ccc(Oc2ccc(Cl)cc2)c(Cl)c1 | > 200 µM | 13.2 µM | 
COC(=O)Nc1cn2cc(C(=O)c3cccs3)ccc2n1 | > 9.12 µM | 0.0331 µM | 
NCCC=C(c1cc(Cl)c(O)c(C(=O)O)c1)c1cc(Cl)c(O)c(C(=O)O)c1 | 151 µM | > 200 µM | 
COc1ccc(-c2c(C#N)c(O)n(NS(=O)(=O)c3ccc(C)cc3)c(=O)c2C#N)cc1 | > 200 µM | 56.2 µM | 
c1ccc(C2=C(c3ccccc3)/N=N/C(c3ccccc3)=C(c3ccccc3)\N=N\2)cc1 | > 200 µM | > 200 µM | 
CC1CCP(=O)(c2ccccc2)C1 (stereo not given) | > 1290 µM | > 1290 µM | 
O=C(O)c1ccccc1SCc1cccc2c(=O)c3ccc(Cl)cc3oc12 | 10.2 µM | 30.2 µM | 
COC(=O)CC1NC(=O)[C@]1(C)[C@H](C)O (stereo not given in full) | > 1230 µM | > 1230 µM | 
CCCCCCCCCCCCCCCCCCN1CN(CO)C(=O)N(CO)C1 | > 200 µM | 166 µM | 
CC(C)(C)[Si](C)(C)OC1C(/C=N\O)OC(n2cnc3c(N)ncnc32)C1O[Si](C)(C)C(C)(C)C (stereo not given) | > 200 µM | 3.02 µM | 
Cc1cccc2c(N)c3cccc(C(=O)NCCNCCN)c3nc12 | > 0.2 µM | 0.11 µM | 
COC(=O)C12C3C=CC(O3)C1C1C=CC2O1 (stereo not given) |  |  | inactive
O=c1[nH]c2cc(Cl)ccc2nc1/C(=N\O)C(O)c1ccc(Cl)cc1Cl (stereo not given) | > 74.1 µM | > 74.1 µM | 
Cc1ccc(S(=O)(=O)C(CCC(=O)c2ccccc2)(CCC(=O)c2ccccc2)[N+](=O)[O-])cc1 | > 10.7 µM | > 10.7 µM | 
CC1=CC(C)(C)N=C2SC(c3ccc(N)cc3)=NN12 | > 251 µM | 2 µM | 
COc1cc(N=Nc2cc(NC(C)=O)c(N=Nc3ccc(S(=O)(=O)O)cc3)cc2S(=O)(=O)O)c(C)cc1N=Nc1cc(OC)c(NC(=O)c2ccc(N)cc2)cc1C | 4.57 µM | 191 µM | 
CN1C(CC(O)(c2ccccc2)c2ccccc2)CCCC1CC(O)(c1ccccc1)c1ccccc1 (stereo not given) | > 200 µM | 57.5 µM | 

SMILES | EC50 | IC50 | outcome
C=CC(=O)NC(N)=NC#N | > 1820 µM | 60.3 µM | 
CC(=O)N1[C@H](C(=O)O)CS[C@H]1c1ccc(F)cc1 |  |  | inactive
Cc1cc(NC(=O)C(=O)Cc2nc3ccccc3s2)ccc1Cl | > 20.9 µM | > 20.9 µM | 
COC(=O)Cc1ccc(COC(=O)c2cc(C(=CCC[C@H]3CC[C@@]4(C)[C@@H](CC[C@@H]5[C@@H]4CC[C@]4(C)[C@@H]([C@H](C)CCCC(C)C)CC[C@@H]54)C3)c3cc(Cl)c(OCc4ccc(CC(=O)OC)cc4)c(C(=O)OCc4ccc(CC(=O)OC)cc4)c3)cc(Cl)c2OCc2ccc(CC(=O)OC)cc2)cc1 | > 200 µM | > 200 µM | 
C=C1C(=O)O[C@H]2C1C[C@H](O)[C@@]1(C)OC1CC[C@@]1(C)O[C@H]21 (stereo not given in full) | > 200 µM | 6.61 µM | 
CC1(C)CC(=O)C2=C(C1)NC(SSC1=C(C#N)C(c3ccc(F)cc3)C3=C(CC(C)(C)CC3=O)N1)=C(C#N)C2c1ccc(F)cc1 (stereo not given) | 19.1 µM | 39.8 µM | 
CCOC(=O)/C(=C\c1ccc(Br)cc1)C(C)=O | > 120 µM | 70.8 µM | 
CC(=O)OC1c2ccccc2CCCCCCC12OCCO2 (stereo not given) | > 200 µM | 105 µM | 
CCOc1ccc(N=NC2C(=O)N(C(=O)CC(=O)Nc3ccccc3)N=C2C)cc1 (stereo not given) | > 200 µM | 20.4 µM | 
COC(=O)C(/C(=N\O)C(=O)Nc1ccc(Br)cc1)c1nc2ccccc2[nH]c1=O (stereo not given) | > 141 µM | > 141 µM | 
CCOC(=O)/C=C/[C@H](O[Si](CC)(CC)CC)C(C)(C)C | > 200 µM | > 200 µM | 
c1csc(-c2csc(-c3ccsc3)c2)c1 | > 200 µM | > 200 µM | 
O=[N+]([O-])c1nccn1CC(O)c1ccccc1 (stereo not given) | > 1070 µM | > 1070 µM | 
Clc1ccc2nc3c(c(-c4ccccc4)nn3-c3ccccc3)c(-c3ccccc3)c2c1 | > 100 µM | > 100 µM | 
Cc1nc2ccc(Br)cc2c(=O)n1-c1ccc(N)cc1 | > 200 µM | > 200 µM | 
COC(=O)C(Cc1c[nH]c2ccccc12)NP(=O)(O)OCC1OC(n2cc(Br)c(=O)[nH]c2=O)CC1O (stereo not given) | > 200 µM | > 200 µM | 
COc1cc2c(c(OC)c1OC)-c1ccc(OC)c(=O)cc1[C@@H](NC(=O)c1ccccc1)CC2 | > 0.2 µM | 0.00339 µM | 
O=C(O)c1[nH]c(C(=O)O)c(CC(F)(F)C(F)(F)C(F)(F)F)c1CC(F)(F)C(F)(F)C(F)(F)F |  |  | inactive
Cc1cc(NS(=O)(=O)c2ccc(Nc3c4ccccc4nc4c(C(=O)N5CCN(CCOS(C)(=O)=O)CC5)cccc34)cc2)no1 | > 44.7 µM | > 44.7 µM | 
COC(=O)CCc1ccc2c(c1)CCC2 | > 200 µM | > 200 µM | 
CN(C)CCCN1CCC2(CCCCC2)CC1 |  |  | inactive

SMILES | EC50 | IC50 | outcome
COc1cnc(NS(=O)(=O)c2ccc(N)cc2)nc1 | > 200 µM | > 200 µM | 
COc1cc(C2c3[nH]c4ccc(F)cc4c3C[C@H]3COC(=O)N23)cc(OC)c1O (stereo not given in full) | > 200 µM | 0.575 µM | 
O=C(CCCn1ccnc1[N+](=O)[O-])NCCn1ccnc1 |  |  | inactive
COc1cccc(C2c3cc4c(cc3OC(O)C2C)OCO4)c1OC (stereo not given) | > 200 µM | 1.51 µM | 
COc1ccc2[nH]cc([C@@H]3C4CCC(C4)[C@H]3NCc3cccc(CN[C@H]4C5CCC(C5)[C@@H]4c4c[nH]c5ccc(OC)cc45)c3)c2c1 | > 2 µM | 0.324 µM and 0.617 µM | 
COc1cc(N=Nc2ccccc2C(=O)O)cc(/C=N\NNC(N)=S)c1O | > 67.6 µM | 32.4 µM | 
COc1ccc(C(c2c(O)c3ccccc3n(-c3ccccc3)c2=O)c2c(O)c3ccccc3n(-c3ccccc3)c2=O)cc1 | > 8.71 µM | > 8.71 µM | 
O=[N+]([O-])c1cccc2nc3ccccc3c(NCCc3ccccn3)c12 | > 2 µM | 0.0631 µM | 
CCOC(=O)/C(C#N)=C/c1[nH]c(C(=O)OCc2ccccc2)c(C)c1C |  |  | inactive
CCCCCCCC(=O)NCC(O)CNC(=O)CCCCCCC |  |  | inactive
C[C@@H]1C[C@H]2[C@@H]3CCC4=CC(=O)C=C[C@]4(C)[C@@]3(F)[C@@H](O)C[C@]2(C)[C@@]1(O)C(=O)CO |  |  | inactive
COC(=O)/N=c1\cc(N2CC=CCC2)nc(N)n1O | > 200 µM | > 200 µM | 
O=S(=O)(O)c1cc(N=Nc2ccc(O)c3ncccc23)ccc1/C=C/c1ccc(N=Nc2ccc(O)c3ncccc23)cc1S(=O)(=O)O | > 105 µM | > 105 µM | 
CCN(C(C)=N)c1ccccc1 | > 295 µM | 67.6 µM | 
COC(=O)C1C(c2ccccc2)=N[C@@H](c2ccccc2)[C@H]1C(=O)OC (stereo not given in full) | > 11.2 µM | > 11.2 µM | 
CCn1c(=O)c(N=O)c(N)n(CC(C)C)c1=O | > 200 µM | 174 µM | 
CCCCCCCCCCCCOCC1(COCCCCCCCCCCCC)COC(c2ccc(N)cc2)OC1 | > 200 µM | > 200 µM | 
CC(=O)N(CCN)CCN |  |  | inactive
COc1cccc2c1OC1c3ccccc3OCC1C2 (stereo not given) | > 200 µM | 97.7 µM | 
COc1cccc(/C=C2\S/C(=N/Nc3nc(-c4ccc([N+](=O)[O-])cc4)cs3)NC2=O)c1O | > 200 µM | 29.5 µM | 
CCc1c(Cc2ccccc2)n(COCCO)c(=O)[nH]c1=O | 9.55 µM | > 200 µM | 

SMILES | EC50 | IC50 | outcome
NC(=O)NO |  | 112 µM | inactive
CCc1cc2c(=O)[nH]c(-c3cccnc3)nc2s1 | > 200 µM | > 200 µM | 
CC1(C)Oc2ccccc2N2O[C@@H]3C(=O)N(c4ccccc4)C(=O)[C@@H]3C21c1ccccc1 (stereo not given in full) |  |  | inactive
c1ccc(-c2nc3ccccc3nc2SCc2cccnc2)cc1 | > 7.94 µM | > 7.94 µM | 
CCOC(=O)N1CCC2(CC1)C[C@](C)(C(C)=O)C(C)O2 (stereo not given in full) | > 200 µM | > 200 µM | 
CCc1cccc(C(C)CC)c1NC(=O)CC1C(=O)Nc2ccccc2S1=O (stereo not given) | > 46.8 µM | > 46.8 µM | 
Nc1nc(Cl)cc(OCC2(CO)CC(OCc3ccccc3)C2)n1 (stereo not given) | > 200 µM | 41.7 µM | 
CC[C@@H](CCCCC1CC[C@H]2CC(=O)C[C@@H]12)OC (stereo not given in full) | > 200 µM | 102 µM | 
CC(=O)NNc1nc(C)c(C(/C=C/c2ccc([N+](=O)[O-])cc2)=N/NC(N)=O)s1 | > 33.9 µM | > 33.9 µM | 
C=C1NC(=O)C(CC(C(=O)C(=O)Nc2c(C)cccc2C(C)(C)C)C(=O)c2ccc3ccccc3c2)C(=O)N1 (stereo not given) | > 178 µM | > 178 µM | 
CCOC(=O)C(=O)Nc1ccc(Cl)c(C(F)(F)F)c1 |  |  | inactive
O=C(/C=C\c1ccc(/C=C/C(=O)Nc2cccc(C3=NCCCN3)c2)cc1)Nc1cccc(C2=NCCCN2)c1 | > 44.7 µM | 8.13 µM | 
CCc1ccc2oc(-c3cc(O)c(-c4nc5cc(CC)ccc5o4)cc3O)nc2c1 | > 200 µM | > 200 µM | 
COc1cc2c(c(OC)c1OC)C(=O)[C@@H](O)[C@H]2NC(=O)CCCCl | > 200 µM | > 200 µM | 
NN=C1/C(=C\c2ccccc2)CCC/C1=C/c1ccccc1 | > 64.6 µM | > 64.6 µM | 
N#Cc1nc(Nc2ccc([N+](=O)[O-])cc2)sc1N | > 38 µM | 19.1 µM | 
O=C(NC(=O)c1ccccc1[N+](=O)[O-])Nc1ccc(Oc2ncc(Cl)cn2)c(C(F)(F)F)c1 |  |  | inactive
COC(=O)[C@@H](NS(=O)(=O)CC12CCC(CC1)C2(C)C)C(C)(C)C | > 200 µM | > 200 µM | 
O=C(O)CCC(CCC(=O)O)(C(=O)O)c1ccccc1 | > 5620 µM | 4470 µM | 
Clc1ccc(CSc2cnnc3c(Br)cccc23)c(Cl)c1 | > 24.5 µM | > 24.5 µM | 
CCOC(=O)C(NC(=O)CC)(Nc1ccccc1F)C(F)(F)F (stereo not given) | > 200 µM | > 200 µM | 

— PubChem BioAssay AID179 (DTP/NCI, 2004)
